Results reported in patent US20240425555A1, “MUTANT BRD4 POLYPEPTIDES AND METHODS OF USE THEREOF” (Northwestern University, priority 2023, published 2024).

What was measured:
Pol II pausing [1] = experiment: total Pol II ChIP-seq upon auxin, JQ1, dBET6 or NVP-2 treatment; format: cell-based, human; settings: for Pol II pausing (Pol II occupancy profile): auxin 500 uM, JQ1 1 uM, dBET6 250 nM, 3 h
Description: FIG. 1A illustrates the updated BRD4-IAA7 degron line. The F-box protein AtAFB2 was integrated into the C terminus of the BRD4 locus under the control of an independent promoter. […] These treatment concentrations/durations are relevant to all of FIG. 1. […] The gene list (N=6481) in this analysis is used throughout the study (except for FIGS. 3H-J). FIG. 1D illustrates the estimated Cumulative Density Function (ECDF) of pause release ratios (PRR, reported as log 2 fold change) for auxin treatment vs untreated control. The PRR is the ratio of Pol II occupancy within gene bodies to its occupancy at promoters. A leftward shift of the curve indicates an increase in the frequency and/or duration of promoter-proximal pausing, while a rightward shift indicates reduced pausing and/or more efficient release into gene bodies.
FIGS. 8A-8E. collectively illustrate the differences in Pol II pausing induced by BRD4 depletion and bromodomain inhibition, related to FIG. 1. FIG. 8A illustrates the western blot showing the expression of HA-tagged AtAFB2 and the auxin-induced degradation of V5-tagged BRD4 using anti-tag antibodies. FIG. 8B illustrates the western blot comparing the BRD4 protein expression level and degradation kinetics of the previously published BRD4-AID degron to those of the BRD4-IAA7 degron used in this study 12. Note: in FIGS. 8A and 8B, the BRD4-IAA7 clone used is D4 (Hygromycin selected); it is G3 (Neomycin selected) otherwise in the study. […] FIG. 8E illustrates the track examples of Pol II ChIP-seq signal at the HSPA8 and GAPDH loci upon NVP-2 treatment (2 h) and corresponding heatmaps showing Pol II occupancy profiles and fold change in occupancy vs control upon NVP-2 treatment.
To specifically deplete BRD4 without affecting other BET proteins, we generated an updated BRD4 degron line by modifying the published miniIAA7 degron system (hereafter BRD4-IAA7) to reduce basal degradation seen with AID degron-tagged BRD4^30 (FIGS. 1A and 8A).
DLD1 cells were crosslinked with 15 ml 1% PFA (ThermoFisher, #28908) in PBS on 15 cm plates for 10 minutes at RT and quenched by the addition of 2 ml 2.5M glycine followed by shaking for 5 minutes. Crosslinked cells were collected by scraping. Chromatin sonication was performed for 10 minutes using a Covaris E200 set to 10% duty factor, 200 cycles per burst, and 140 peak intensity power. For endogenous protein ChIP, 10-20% of mouse embryonic fibroblasts (MEF) chromatin (prepared the same way as in DLD1 cells) was added to each sample as a spike-in control. For overexpressed protein ChIP, such as GFP-ChIP, 20 ng spike-in chromatin (Active Motif, #53083) and 2 ug spike-in antibody (Active Motif, #61686) were added to each sample. Immunoprecipitation was carried out at 4° C. overnight using 5ul of Rpb1 (Cell Signaling Technology, #D8L4Y), 5ul of Ser2p (Active Motif, #61984), 10ul of CCNT1 (Cell Signaling Technology, #81464), 10ul of CDK9 (Santa Cruz Biotechnology, #sc-13130 X) antibodies, or 200ul of a cocktail consisting of 50ul of each GFP antibody (DSHB, #GFP-G1, #GFP-12A6, #GFP-12E6, #GFP-8H11). Immune complexes were enriched with Protein G-coupled Dynabeads (Invitrogen, #10004D) at 4° C. for >=4 h, and incubated with proteinase K (Roche, #3115828001) to reverse crosslink at 65° C. overnight. Eluted DNA was purified with the QIAquick PCR Purification Kit (Qiagen, #28106), and libraries were prepared using the KAPA HTP library preparation kit (Roche, #07961901001) for sequencing on the NovaSeq 6000.
Reads were aligned to hg38 with bowtie 1/250. Genes (N=6,481) with pausing site and TES annotation were obtained from a previously published study51. Promoter regions were designated as spanning from 100 bp upstream to 300 bp downstream of the pausing site. Gene body regions were designated as spanning from 300 bp downstream of the pausing site to the TES. FeatureCounts 2.0.152 was used to calculate the total mapped reads from Pol II ChIP-seq at promoters and within gene bodies. […]

BRD4 = BRD4 (UniProt O60885+Q38825); experiment: Western blot of BRD4 degradation in BRD4-IAA7 degron line; format: cell-based, human; settings: BRD4-IAA7 DLD1 degron line; auxin 500 uM 2 or 3 h; JQ1 1 uM or dBET6 250 nM 3 h
Ser2P = Ser2P ChIP-seq upon JQ1 or dBET6 treatment; format: cell-based, human; settings: BRD4-IAA7 cells; series concentration of JQ1 or 250 nM dBET6, 3 h
Procedure: FIGS. 5A-5J collectively illustrate the identification of a distinct BRD4-PTEFb population, which is active but not histone acetylation-bound. FIG. 5A illustrates the track examples for AID ChIP-seq in the BRD4-AID line and CCNT1 ChIP-seq in the BRD4-IAA7 line with/without auxin treatment (3 h). H3K27ac ChIP-seq signal in the BRD4-AID line is shown for comparison. FIG. 5B illustrates the heatmap showing the genome-wide BRD4 and CCNT1 occupancy profile and the corresponding fold change upon auxin treatment for the conditions in A. Genes ranked by BRD4 signal in control. FIG. 5C illustrates the scatter plot showing the relative promoter density of CCNT1 vs BRD4, calculated by the log 2RPKM of the ChIP-seq signals at the regions flanking (±1 Kb) the Pol II pausing sites. FIG. 5D illustrates the track examples for GFP ChIP-seq signal upon induction of GFP-tagged BRD4-FL or the indicated mutants (left). Heatmap showing the genome-wide fold changes of the GFP-tagged BRD4 mutants relative to the vector (right). The endogenous BRD4 was depleted by auxin treatment (3 h) in all samples. Genes are ranked by GFP signal in the GFP-BRD4-FL condition. FIG. 5E illustrates the track examples for CCNT1 ChIP-seq signal upon endogenous BRD4 depletion and rescue with indicated GFP-tagged mutants (left). Heatmap showing the genome-wide CCNT1 fold changes (right). […]

Pol II pausing [2] = settings: reference 21; cited from earlier work
BRDT = molecular target: T1, BRDT (Homo sapiens, UniProt Q58F21); experiment: Western blot of dBET6 treatment in NCIH2009 cells (BRDT); format: cell-based; settings: dBET6 3 h
T1 construct: endogenous in cells; host or cells: NCIH2009
Description: FLAG antibody (#F1804) was obtained from Millipore Sigma. […] H3 antibody was generated in-house.

PTEFb [3] = molecular target: T2, PTEFb (Homo sapiens, UniProt O60563+P50750); experiment: BRD4 IP / GFP IP competition for PTEFb by C46 or p46; format: binding; design: endogenous in cells; lysate of unnamed cells for the p46 addition
T2 sequence (P50750 whole entry): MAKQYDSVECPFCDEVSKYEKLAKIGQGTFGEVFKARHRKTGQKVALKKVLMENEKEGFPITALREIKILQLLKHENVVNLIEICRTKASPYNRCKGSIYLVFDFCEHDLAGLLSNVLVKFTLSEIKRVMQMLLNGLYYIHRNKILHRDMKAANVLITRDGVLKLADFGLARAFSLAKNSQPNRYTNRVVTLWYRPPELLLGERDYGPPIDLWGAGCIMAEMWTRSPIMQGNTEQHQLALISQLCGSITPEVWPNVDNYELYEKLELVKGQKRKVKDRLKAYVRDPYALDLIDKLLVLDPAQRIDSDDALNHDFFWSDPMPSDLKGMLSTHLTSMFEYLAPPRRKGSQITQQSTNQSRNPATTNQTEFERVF
T2 sequence (O60563 whole entry): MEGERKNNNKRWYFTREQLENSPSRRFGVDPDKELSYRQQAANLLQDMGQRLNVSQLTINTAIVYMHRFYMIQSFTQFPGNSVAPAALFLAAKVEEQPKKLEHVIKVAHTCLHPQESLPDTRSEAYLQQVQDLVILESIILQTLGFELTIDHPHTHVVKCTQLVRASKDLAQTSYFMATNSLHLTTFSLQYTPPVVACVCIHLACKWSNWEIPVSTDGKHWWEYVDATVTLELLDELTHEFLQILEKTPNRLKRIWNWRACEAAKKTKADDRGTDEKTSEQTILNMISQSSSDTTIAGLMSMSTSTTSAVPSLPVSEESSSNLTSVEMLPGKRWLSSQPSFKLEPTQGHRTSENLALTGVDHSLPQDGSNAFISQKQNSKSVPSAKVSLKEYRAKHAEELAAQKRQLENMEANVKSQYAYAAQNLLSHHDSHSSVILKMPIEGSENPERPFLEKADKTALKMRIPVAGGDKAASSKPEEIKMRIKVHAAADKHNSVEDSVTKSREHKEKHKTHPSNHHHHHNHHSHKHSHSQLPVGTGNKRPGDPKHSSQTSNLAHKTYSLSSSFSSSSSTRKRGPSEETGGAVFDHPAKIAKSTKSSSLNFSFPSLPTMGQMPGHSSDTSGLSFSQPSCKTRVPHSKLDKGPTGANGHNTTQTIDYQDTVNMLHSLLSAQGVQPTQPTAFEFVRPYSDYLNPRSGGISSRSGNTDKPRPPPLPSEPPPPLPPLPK
Description: FIGS. 14A-14G. Identification of essential PTEFb binding sites in BRD4's C-terminus. FIG. 14A. Schematic showing the constructs of Dox inducible GFP-tagged BRD4 C terminus mutants with residue length indicated. Western blot of GFP IP for these two mutants upon Dox induction for 2 days showing both mutants can interact with PTEFb. FIG. 14B. […] Auxin treatment serves as a positive control for the loss of endogenous BRD4. FIG. 14C. […] FIG. 14D. […] FIG. 14E. Schematic showing the sequence alignment of the 46 residues in the C terminus of BRD4 and BRDT as well as the alanine scanning strategy to mutate each site for 3 amino acids at one time. FIG. 14F. Comparison of the ability to pull down PTEFb by Bio-p46/Bio-p46* and Biotin-labeled BRDT C terminus 46 residues (Bio-pT46) as well as Biotin-labeled BRD4 C terminus 46 residues with each of the sites mutated to AAA as shown in E (Bio-p1 to p7). FIG. 14G. Western blot of GFP IP showing the amount of PTEFb binding to GFP-tagged BRD4 C terminus fragment of 340 residues (WT) and its mutants with each of the sites mutated to AAA as indicated in E (A-H).
FIGS. 15A-15E. FIG. 15A. Spectral counts for BRD4, CCNT1, and CDK9 from the GFP IP for the GFP-tagged BRD4 C terminus fragment of 340 residues (C) and 46 residues (C46) followed by mass spectrometry. […] Quantitative curves of PTEFb signal intensity from western blot in D against increasing concentration of p46. […]

PTEFb [4] = molecular target: T2, PTEFb; experiment: GFP IP-MS and GFP IP western blot of GFP-tagged BRD4 constructs; format: binding; settings: GFP-tagged; for binding to PTEFb (western blot for GFP IP): Dox 2 days
PTEFb [5] = molecular target: T2, PTEFb; experiment: Peptide titration: p46 competition in Bio-p46 pull down assay; format: binding; design: endogenous in cells
Description: FIGS. 15A-15E. FIG. 15A. Spectral counts for BRD4, CCNT1, and CDK9 from the GFP IP for the GFP-tagged BRD4 C terminus fragment of 340 residues (C) and 46 residues (C46) followed by mass spectrometry. FIG. 15B. Western blot validation for the mass spectrometry using the remaining GFP IP samples from one of the replicates. FIG. 15C. […] FIG. 15D. […] FIG. 15E. Quantitative curves of PTEFb signal intensity from western blot in D against increasing concentration of p46.
To pull down PTEFb by Biotin-labeled peptide, cells were lysed with Triton X-100 lysis buffer as used for GFP IP. Biotin-labeled peptides were pre-incubated with streptavidin beads at room temperature for 30 min. Conjugated beads were then washed with lysis buffer twice before adding to the cell lysate. Pulldown was carried out at 4° C. by rotating for >=4 h, followed by 5 times wash with lysis buffer. To elute, 4× Laemmli sample buffer was added and boiled for 10 min. For the peptide titration experiment, a series of concentration of p46 was pre-incubated with same amount of cell lysate for 1 h at 4° C. Same amount of Bio-p46 conjugated streptavidin beads were used to pull down PTEFb for >=4 h. PTEFb signal intensity from western blot was determined by Image Lab from Bio-Rad.

For `O=C(O)Cc1c[nH]c2ccccc12` [auxin], the “Pol II pausing (Pol II occupancy profile)” value (Pol II pausing [1]; BRD4-IAA7 cells) was “inducing pausing at the majority of Pol II-transcribed genes” and the “BRD4 degradation (western blot)” value (BRD4) was “rapidly degraded”.

In the case of `Cc1sc2c(c1C)C(c1ccc(Cl)cc1)=N[C@@H](CC(=O)NCCCCCCCCNC(=O)COc1cccc3c1C(=O)N(C1CCC(=O)NC1=O)C3=O)c1nnc(C)n1-2` (stereo partly drawn) [dBET6], the “Ser2P ChIP-seq signals” value (Ser2P) is reported as “Ser2P signal fade away”, the “Pol II pausing (Pol II occupancy profile)” value (Pol II pausing [1]; BRD4-IAA7 cells) is reported as “inducing pausing at the majority of Pol II-transcribed genes” and the “gene-by-gene log 2PRR correlation with auxin treatment” value (Pol II pausing [1]; BRD4-IAA7 cells, scatter plot) is reported as “much stronger”. For the same compound, the “effect on Pol II pausing (RNA-seq, NET-seq)” value (Pol II pausing [2]) was “dramatic, genome-wide increase in paused Pol II at promoters” and the “degradation of endogenous BRDT” value (BRDT) was “degraded”.

For “C46: BRD4 C terminus 46aa (SEQ ID NO: 1) expressed in cells with a GFP tag”, the “competition with endogenous BRD4 for PTEFb (endogenous BRD4 IP)” value (PTEFb [3]; C46 expressed in BRD4-V5-IAA7 degron line) was “competes with the endogenous BRD4 for PTEFb”, the “interaction with PTEFb (GFP IP-MS)” value (PTEFb [4]; Dox 50 nM 2 days) was “does not impair its interaction with PTEFb” and the “binding to PTEFb (western blot for GFP IP)” value (PTEFb [4]) was “bind to PTEFb strongly”.

For “C85: BRD4 C terminus 85aa expressed in cells with a GFP tag”, the “binding to PTEFb (western blot for GFP IP)” value (PTEFb [4]) was “bind to PTEFb strongly”.

With NVP2 the “Pol II pausing genome-wide upon CDK9 inhibition” value (Pol II pausing [1]; DLD1 cells, NVP-2 treatment 2 h) was “induced strong Pol II pausing genome-wide”.

In the case of “p46: synthetic peptide of the BRD4 C terminus 46 residues”, the “amount of PTEFb bound to endogenous BRD4 or overexpressed GFP-tagged C46” value (PTEFb [3]; p46 added to cell lysate prior to IP) is reported as “significantly decreased”, the “binding of PTEFb to Bio-p46” value (PTEFb [5]; cell lysate pre-incubated with increasing concentration of p46) is reported as “decreased binding of PTEFb” and the “"IC50"” value (PTEFb [5]; competition between free and biotin-labelled peptides, in vitro) is reported as “hundred nanomole level”.
